Source: patent publication US11179391B2, “Compound with kinase inhibitory activity and preparation method and use thereof” (priority 2017, dated 2021)

System: Human colorectal cancer Colo-205 cells
Assay: Pharmacodynamic study on mouse Colo-205 model (subcutaneous xenograft)
Format: in vivo, BALB/c nude mice
Description: BALB/c nude mice, 6-8 weeks old, weighing 12-14 g, female, provided by Shanghai Lab Animal Research Center (Shanghai Xipuer-Beikai) with an animal certificate No: 2008001682093.
The experiment was started after 3-7 days in the experimental environment when the animals arrived. Animals were housed in IVC (independent air supply system) cages (Four animals per cage) in SPF grade experimental animal facilities. Each cage animal information card contained the number of animals in the cage, sex, strain, receiving date, dosing schedule, experiment number, group and start date of the experiment. All cages, bedding, and drinking water were sterilized before use and were updated twice a week.
4.3 Tumor Cell Inoculation Method
Human colorectal cancer Colo-205 cells (ATCC-CCL-222) were cultured in vitro in monolayer under the conditions of RPMI 1640 medium with 10% fetal bovine serum, 100 U/mL penicillin and 100 μg/mL streptomycin, and 37° C. 5% CO2 incubator. The passage was routinely digested with trypsin-EDTA twice a week. When the cell saturation was up to 80%-90% and reached the requirement, the cells were collected, counted and inoculated. 0.2 mL (5×10^6) Colo-205 cells were subcutaneously inoculated on the right back of each mouse, and mice were randomly grouped and dosed when the average tumor volume reached 163 mm^3.
4.14 mL of lactic acid was added to a large beaker containing 800 mL of deionized water, and the pH was adjusted to 4.0 with 5 N NaOH. Then the volume was fixed to 1,000 mL to obtain 50 mmol/L sodium lactate buffer.
The subcutaneous tumor volume of nude mice was measured 2-3 times a week, and the mice were weighed, and the data were recorded.
4.6 Analysis and Evaluation
Experimental evaluation index: the tumor growth inhibition rate TGI (%) or the relative tumor proliferation rate T/C (%) was used for evaluation, wherein T was the experimental group, and C was the vehicle group.

[1] = Colo-205 model, mesylate, 50 mg/kg PO × 28 days, day 28

CCN1CCC(C(C)c2ccc(Nc3ncc(F)c(-c4cc(F)c5nc(C)n(C(C)C)c5c4)n3)nc2)CC1 (single isomer, unassigned) [Example 17, (R or S)—N-(5-(1-(1-ethylpiperidin-4-yl)ethyl)pyridin-2-yl)-5-fluoro-4-(4-fluoro-1-isopropyl-2-methyl-1H-benzo[d]imidazol-6-yl) pyrimidin-2-amine]
Tumor volume (day 0) (Colo-205 model, baseline at start of dosing, mesylate, 50 mg/kg PO × 28 days): 198 mm^3
antitumor effect compared with Abemaciclib (in words) (Colo-205 model, same dosage (50 mg/kg PO × 28 days)): better antitumor effect than positive control compound Abemaciclib
Tumor volume (day 28) (Colo-205 model, mesylate, 50 mg/kg PO × 28 days): 591 mm^3
T/C relative tumor proliferation rate [1]: 18.2%
TGI tumor growth inhibition rate [1]: 81.8%
inhibitory effect on the tumor growth (in words) (Colo-205 nude mouse model, 50 mg/kg, continuous PO administration for 28 days): strong inhibitory effect
